Test results from patent publication US8614206B2 (Genentech, Inc., priority 2011, dated 2013).
Where two headings read alike, the source gives them in different places.

Tests used:
PIM1 = PIM1 (Homo sapiens (Human), UniProt P11309); assay: Pim kinase inhibition, PIM1 LC3K (Example 901); assay type: biochemical
Text: Determination of the Pim kinase activity of a Formula I compound is possible by a number of direct and indirect detection methods.

BaF3 PIM1 cells = assay: cells; conditions: Mus musculus
Experimental: (§1) BaF3 parental line was obtained from the DSMZ repository. BaF3 lines transfected with PIM 1 or PIM2 were generated. Mouse IL-3 was purchased from R&D Systems. G418 was purchased from Clontech. Media for BaF3 parental line contained RPMI, 10% FBS, 2 mM L-Glutamine, 2 ng/mL mIL-3. Media for BaF3 PIM1 & 2 lines contained RPMI, 10% FBS, 2 mM L-Glutamine, 250 μg/mL.
(§2) BaF3, a murine interleukin-3 dependent pro-B cell line, parental cells, BaF3 PIM1 cells, BaF3 PIM2 cells, and MM1.S (multiple myeloma) cells were seeded at 2 k/well, 5 k/well, 5 k/well, and 10 k/well respectively, in a 384-well plate, at 45 μL/well. Test compound was added at 5 μL/well. BaF3 cells (parental and transfected) were incubated overnight, while MM1.S cells were incubated for 72 hours at 37° C., 5% CO2. CELL TITER GLO® Reagent (Promega) was added at 50 μL/well, the plates were incubated for 30 minutes, and their luminescence read on an HT Analyst. IC50/EC50 values for the test compound were calculated.

[1] = system: MM1.S (multiple myeloma) cells; assay: In vitro cell proliferation, MM1.S multiple myeloma cells (CellTiter-Glo, ATP); assay type: cell-based; conditions: Homo sapiens, MM1.S, 72 h, read-out: Prolif MM1S ATP (EC50)
How it was run: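 BaF3 parental cells (medium with 2 ng/mL mIL-3) seeded at 2 k/well and MM1.S at 10 k/well, then exposed to test compound at 37° C, 5% CO2: BaF3 overnight, MM1.S for 72 hours. Viability read by CellTiter-Glo; IC50/EC50 values calculated.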

BaF3 parental cells = assay: In vitro cell proliferation, BaF3 parental line + IL3 (CellTiter-Glo); assay type: cell-based, murine; conditions: Mus musculus, BaF3, BaF3 parental cells with IL-3, incubated overnight
Experimental: as §1, §2

[2] = BaF3, read-out: Prolif BaF3 PIM1 (IC50), BaF3 PIM1 cells, incubated overnight
[3] = read-out: Prolif BaF3 IL3 (IC50)
[4] = BaF3, read-out: Prolif BaF3_PIM1 (IC50), BaF3 PIM1 cells, incubated overnight
[5] = read-out: Prolif BaF3 + IL3 (IC50)

Sequence of PIM1 (P11309 whole entry): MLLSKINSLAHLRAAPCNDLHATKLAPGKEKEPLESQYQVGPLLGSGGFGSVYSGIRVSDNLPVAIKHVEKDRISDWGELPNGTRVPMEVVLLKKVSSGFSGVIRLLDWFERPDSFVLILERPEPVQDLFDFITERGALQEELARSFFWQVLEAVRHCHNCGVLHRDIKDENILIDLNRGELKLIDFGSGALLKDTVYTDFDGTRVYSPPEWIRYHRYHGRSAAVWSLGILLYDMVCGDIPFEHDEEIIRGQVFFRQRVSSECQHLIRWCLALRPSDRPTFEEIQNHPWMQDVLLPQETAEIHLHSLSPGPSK

| Compound | Ki (PIM1) [nM] | IC50 (BaF3 PIM1 cells; [2]) [nM] | EC50 [1] [nM] | IC50 (BaF3 PIM1 cells; [4]) [nM] | IC50 (BaF3 parental cells; [3]) [nM] | IC50 (BaF3 parental cells; [5]) [nM] |
| --- | --- | --- | --- | --- | --- | --- |
| CN[C@H]1CCCN(c2c(NC(=O)c3nc(-c4cc(C)ccc4F)sc3N)cnn2CC(F)F)CC1 [Example 119, (S)-5-Amino-N-(1-(2,2-difluoroethyl)-5-(4-(methylamino)azepan-1-yl)-1H-pyrazol-4-yl)-2-(2-fluoro-5-methylphenyl)thiazole-4-carboxamide] | 0.044 | 212 | 3000 |  | 5600 |  |
| Cn1ncc(NC(=O)c2nc(-c3ccccn3)sc2N)c1N1CCNCC(F)(F)C1 [Example 223, 5-amino-N-(5-(6,6-difluoro-1,4-diazepan-1-yl)-1-methyl-1H-pyrazol-4-yl)-2-(pyridin-2-yl)thiazole-4-carboxamide] | 0.206 | 547 | 20200 |  | 12500 |  |
| COC1CCN(c2c(NC(=O)c3nc(-c4cc(C)ccc4F)sc3N)cnn2C)CCC1N (stereo not shown) [Example 325, 5-amino-N-[5-(4-amino-5-methoxy-azepan-1-yl)-1-methyl-pyrazol-4-yl]-2-(2-fluoro-5-methyl-phenyl)thiazole-4-carboxamide] | 0.153 |  | 752 | 191 |  | 16600 |
| COc1ncccc1-c1nc(C(=O)Nc2cnn(C)c2N2CCC[C@H](N)CC2)c(N)s1 [Example 418, 5-amino-N-[5-[(4S)-4-aminoazepan-1-yl]-1-methyl-pyrazol-4-yl]-2-(2-methoxy-3-pyridyl)thiazole-4-carboxamide] | 1.08 |  | 7000 | 1400 |  | > 25000 |

Now from value to compound, other results behind:

| Ki (PIM1) [nM] | IC50 (BaF3 PIM1 cells; [2]) [nM] | EC50 [1] [nM] | IC50 (BaF3 PIM1 cells; [4]) [nM] | Compound | IC50 (BaF3 parental cells; [3]) [nM] | IC50 (BaF3 parental cells; [5]) [nM] |
| --- | --- | --- | --- | --- | --- | --- |
| 0.12 | 404 | 160 |  | Nc1sc(-c2cc(F)ccc2F)nc1C(=O)Nc1cnn(CC(F)F)c1N1CCC[C@@H](N)CC1 [Example 161, (R)-5-amino-N-(5-(4-aminoazepan-1-yl)-1-(2,2-difluoroethyl)-1H-pyrazol-4-yl)-2-(2,5-difluorophenyl)thiazole-4-carboxamide] | 6000 |  |
| 0.0694 |  | 32 | 33.6 | COC1CCN(c2c(NC(=O)c3nc(-c4ccccc4F)sc3N)cnn2C)CCC1N (stereo not shown) [Example 324, 5-amino-N-[5-(4-amino-5-methoxy-azepan-1-yl)-1-methyl-pyrazol-4-yl]-2-(2-fluorophenyl)thiazole-4-carboxamide] |  | 19600 |
| 0.384 |  | 185 | 73.5 | COC1CCN(c2c(NC(=O)c3nc(-c4cc(F)ccc4F)sc3N)cnn2C)CCC1N (stereo not shown) [Example 326, 5-amino-N-[5-(4-amino-5-methoxy-azepan-1-yl)-1-methyl-pyrazol-4-yl]-2-(2,5-difluorophenyl)thiazole-4-carboxamide] |  | 17400 |
| 0.248 |  | 2800 | 1300 | Cc1ccc(F)c(-c2nc(C(=O)Nc3cnn(C4CC4)c3N3CCC(N)C(F)CC3)c(N)s2)c1 (stereo not shown) [Example 329, 5-amino-N-[5-(4-amino-5-fluoro-azepan-1-yl)-1-cyclopropyl-pyrazol-4-yl]-2-(2-fluoro-5-methyl-phenyl)thiazole-4-carboxamide] |  | 4600 |
| 0.01 |  | 1200 | 83.6 | Nc1sc(-c2c(F)cccc2F)nc1C(=O)Nc1cnn(C2CC2)c1N1CC[C@H](N)CC(F)(F)C1 [Example 344, 5-amino-N-[5-[(5S)-5-amino-3,3-difluoro-azepan-1-yl]-1-cyclopropyl-pyrazol-4-yl]-2-(2,6-difluorophenyl)thiazole-4-carboxamide] |  | 5200 |
| 0.007 |  | 136 | 81.3 | Nc1sc(-c2c(F)cccc2F)nc1C(=O)Nc1cnn(C2CC2)c1N1CC[C@@H](N)CC(F)(F)C1 [Example 345, 5-amino-N-[5-[(5R)-5-amino-3,3-difluoro-azepan-1-yl]-1-cyclopropyl-pyrazol-4-yl]-2-(2,6-difluorophenyl)thiazole-4-carboxamide] |  | 8400 |
